What was measured:
Experiment in all cases: SelectScreen ZLYTE
Format in all cases: biochemical
Conditions in all cases: INX-0315 at 100nM
[1] = molecular target: T1, AMPK (A1/B2/G2) (Homo sapiens, UniProt Q13131)
T1 construct: purchased Thermo Fisher Scientific SelectScreen (plus Nanosyn / Reaction Biology for CDK/cyclin lines)
Method in brief: (§1)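 Preset conditions throughout. Primary: 100 nmol/L INX-315, 1% DMSO. Secondary: ten doses, top 1 µmol/L, bottom 0.0495 nmol/L.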

[2] = molecular target: T2, CAMK2A (CaMKII alpha) (Homo sapiens, UniProt Q9UQM7)
T2 construct: purchased Thermo Fisher Scientific SelectScreen (plus Nanosyn / Reaction Biology for CDK/cyclin lines)
Method in brief: as §1

[3] = molecular target: T3, CDC42 BPA (MRCKA) (Homo sapiens, UniProt Q5VT25)
T3 construct: purchased Thermo Fisher Scientific SelectScreen (plus Nanosyn / Reaction Biology for CDK/cyclin lines)
Method in brief: as §1

[4] = molecular target: T4, CSNK1A1L (Homo sapiens, UniProt Q8N752)
T4 construct: purchased Thermo Fisher Scientific SelectScreen (plus Nanosyn / Reaction Biology for CDK/cyclin lines)
Method in brief: as §1

[5] = molecular target: T5, EPHB2 (Homo sapiens, UniProt P29323)
T5 construct: purchased Thermo Fisher Scientific SelectScreen (plus Nanosyn / Reaction Biology for CDK/cyclin lines)
Method in brief: as §1

[6] = molecular target: T6, FLT1 (VEGFR1) (Homo sapiens, UniProt P17948)
T6 construct: purchased Thermo Fisher Scientific SelectScreen (plus Nanosyn / Reaction Biology for CDK/cyclin lines)
Method in brief: as §1

[7] = molecular target: T7, HIPK1 (Myak) (Homo sapiens, UniProt Q86Z02)
T7 construct: purchased Thermo Fisher Scientific SelectScreen (plus Nanosyn / Reaction Biology for CDK/cyclin lines)
Method in brief: as §1

[8] = molecular target: T8, JAK2 JH1 JH2 (Homo sapiens, UniProt O60674)
T8 construct: JAK2 JH1 JH2; purchased Thermo Fisher Scientific SelectScreen (plus Nanosyn / Reaction Biology for CDK/cyclin lines)
Method in brief: as §1

[9] = molecular target: T9, LCK (Homo sapiens, UniProt P06239)
T9 construct: purchased Thermo Fisher Scientific SelectScreen (plus Nanosyn / Reaction Biology for CDK/cyclin lines)
Method in brief: as §1

[10] = molecular target: T10, LYN B (Homo sapiens, UniProt P07948)
T10 construct: purchased Thermo Fisher Scientific SelectScreen (plus Nanosyn / Reaction Biology for CDK/cyclin lines)
Method in brief: as §1

[11] = molecular target: T11, MAP3K19 (YSK4) (Homo sapiens, UniProt Q56UN5)
T11 construct: purchased Thermo Fisher Scientific SelectScreen (plus Nanosyn / Reaction Biology for CDK/cyclin lines)
Method in brief: as §1

[12] = molecular target: T12, MAPK12 (p38 gamma) (Homo sapiens, UniProt P53778)
T12 construct: purchased Thermo Fisher Scientific SelectScreen (plus Nanosyn / Reaction Biology for CDK/cyclin lines)
Method in brief: as §1

[13] = molecular target: T13, MAPK14 (p38 alpha) Direct (Homo sapiens, UniProt Q16539)
T13 construct: purchased Thermo Fisher Scientific SelectScreen (plus Nanosyn / Reaction Biology for CDK/cyclin lines)
Method in brief: as §1

[14] = molecular target: T14, MAPK8 (JNK1) (Homo sapiens, UniProt P45983)
T14 construct: purchased Thermo Fisher Scientific SelectScreen (plus Nanosyn / Reaction Biology for CDK/cyclin lines)
Method in brief: as §1

[15] = molecular target: T15, MAPKAPK5 (PRAK) (Homo sapiens, UniProt Q8IW41)
T15 construct: purchased Thermo Fisher Scientific SelectScreen (plus Nanosyn / Reaction Biology for CDK/cyclin lines)
Method in brief: as §1

[16] = molecular target: T16, MARK3 (Homo sapiens, UniProt P27448)
T16 construct: purchased Thermo Fisher Scientific SelectScreen (plus Nanosyn / Reaction Biology for CDK/cyclin lines)
Method in brief: as §1

[17] = molecular target: T17, MINK1 (Homo sapiens, UniProt Q8N4C8)
T17 construct: purchased Thermo Fisher Scientific SelectScreen (plus Nanosyn / Reaction Biology for CDK/cyclin lines)
Method in brief: as §1

[18] = molecular target: T18, MUSK (Homo sapiens, UniProt O15146)
T18 construct: purchased Thermo Fisher Scientific SelectScreen (plus Nanosyn / Reaction Biology for CDK/cyclin lines)
Method in brief: as §1

[19] = molecular target: T19, NEK6 (Homo sapiens, UniProt Q9HC98)
T19 construct: purchased Thermo Fisher Scientific SelectScreen (plus Nanosyn / Reaction Biology for CDK/cyclin lines)
Method in brief: as §1

[20] = molecular target: T20, PAK1 (Homo sapiens, UniProt Q13153)
T20 construct: purchased Thermo Fisher Scientific SelectScreen (plus Nanosyn / Reaction Biology for CDK/cyclin lines)
Method in brief: as §1

[21] = molecular target: T21, PDGFRA T674I (Homo sapiens, UniProt P16234, T674I)
T21 construct: purchased Thermo Fisher Scientific SelectScreen (plus Nanosyn / Reaction Biology for CDK/cyclin lines)
Method in brief: as §1

[22] = molecular target: T22, PDGFRB (PDGFR beta) (Homo sapiens, UniProt P09619)
T22 construct: purchased Thermo Fisher Scientific SelectScreen (plus Nanosyn / Reaction Biology for CDK/cyclin lines)
Method in brief: as §1

[23] = molecular target: T23, PDK1 (Homo sapiens, UniProt O15530)
T23 construct: purchased Thermo Fisher Scientific SelectScreen (plus Nanosyn / Reaction Biology for CDK/cyclin lines)
Method in brief: as §1

[24] = molecular target: T24, PRKCA (PKC alpha) (Homo sapiens, UniProt P17252)
T24 construct: purchased Thermo Fisher Scientific SelectScreen (plus Nanosyn / Reaction Biology for CDK/cyclin lines)
Method in brief: as §1

[25] = molecular target: T25, PRKCB1 (PKC beta I) (Homo sapiens, UniProt P05771)
T25 construct: purchased Thermo Fisher Scientific SelectScreen (plus Nanosyn / Reaction Biology for CDK/cyclin lines)
Method in brief: as §1

[26] = molecular target: T26, PRKCE (PKC epsilon) (Homo sapiens, UniProt Q02156)
T26 construct: purchased Thermo Fisher Scientific SelectScreen (plus Nanosyn / Reaction Biology for CDK/cyclin lines)
Method in brief: as §1

[27] = molecular target: T27, PRKCQ (PKC theta) (Homo sapiens, UniProt Q04759)
T27 construct: purchased Thermo Fisher Scientific SelectScreen (plus Nanosyn / Reaction Biology for CDK/cyclin lines)
Method in brief: as §1

[28] = molecular target: T28, PRKG2 (PKG2) (Homo sapiens, UniProt Q13237)
T28 construct: purchased Thermo Fisher Scientific SelectScreen (plus Nanosyn / Reaction Biology for CDK/cyclin lines)
Method in brief: as §1

[29] = molecular target: T29, RET (Homo sapiens, UniProt P07949)
T29 construct: purchased Thermo Fisher Scientific SelectScreen (plus Nanosyn / Reaction Biology for CDK/cyclin lines)
Method in brief: as §1

[30] = molecular target: T30, RPS6KA3 (RSK2) (Homo sapiens, UniProt P51812)
T30 construct: purchased Thermo Fisher Scientific SelectScreen (plus Nanosyn / Reaction Biology for CDK/cyclin lines)
Method in brief: as §1

[31] = molecular target: T31, SBK1 (Homo sapiens, UniProt Q52WX2)
T31 construct: purchased Thermo Fisher Scientific SelectScreen (plus Nanosyn / Reaction Biology for CDK/cyclin lines)
Method in brief: as §1

[32] = molecular target: T32, SGK (SGK1) (Homo sapiens, UniProt O00141)
T32 construct: purchased Thermo Fisher Scientific SelectScreen (plus Nanosyn / Reaction Biology for CDK/cyclin lines)
Method in brief: as §1

[33] = molecular target: T33, SRPK1 (Homo sapiens, UniProt Q96SB4)
T33 construct: purchased Thermo Fisher Scientific SelectScreen (plus Nanosyn / Reaction Biology for CDK/cyclin lines)
Method in brief: as §1

[34] = molecular target: T34, STK22D (TSSK1) (Homo sapiens, UniProt Q9BXA7)
T34 construct: purchased Thermo Fisher Scientific SelectScreen (plus Nanosyn / Reaction Biology for CDK/cyclin lines)
Method in brief: as §1

[35] = molecular target: T35, STK3 (MST2) (Homo sapiens, UniProt Q13188)
T35 construct: purchased Thermo Fisher Scientific SelectScreen (plus Nanosyn / Reaction Biology for CDK/cyclin lines)
Method in brief: as §1

[36] = molecular target: T36, STK4 (MST1) (Homo sapiens, UniProt Q13043)
T36 construct: purchased Thermo Fisher Scientific SelectScreen (plus Nanosyn / Reaction Biology for CDK/cyclin lines)
Method in brief: as §1

[37] = molecular target: T37, TNK1 (Homo sapiens, UniProt Q13470)
T37 construct: purchased Thermo Fisher Scientific SelectScreen (plus Nanosyn / Reaction Biology for CDK/cyclin lines)
Method in brief: as §1

T21 sequence (P16234 24-1089 T674I): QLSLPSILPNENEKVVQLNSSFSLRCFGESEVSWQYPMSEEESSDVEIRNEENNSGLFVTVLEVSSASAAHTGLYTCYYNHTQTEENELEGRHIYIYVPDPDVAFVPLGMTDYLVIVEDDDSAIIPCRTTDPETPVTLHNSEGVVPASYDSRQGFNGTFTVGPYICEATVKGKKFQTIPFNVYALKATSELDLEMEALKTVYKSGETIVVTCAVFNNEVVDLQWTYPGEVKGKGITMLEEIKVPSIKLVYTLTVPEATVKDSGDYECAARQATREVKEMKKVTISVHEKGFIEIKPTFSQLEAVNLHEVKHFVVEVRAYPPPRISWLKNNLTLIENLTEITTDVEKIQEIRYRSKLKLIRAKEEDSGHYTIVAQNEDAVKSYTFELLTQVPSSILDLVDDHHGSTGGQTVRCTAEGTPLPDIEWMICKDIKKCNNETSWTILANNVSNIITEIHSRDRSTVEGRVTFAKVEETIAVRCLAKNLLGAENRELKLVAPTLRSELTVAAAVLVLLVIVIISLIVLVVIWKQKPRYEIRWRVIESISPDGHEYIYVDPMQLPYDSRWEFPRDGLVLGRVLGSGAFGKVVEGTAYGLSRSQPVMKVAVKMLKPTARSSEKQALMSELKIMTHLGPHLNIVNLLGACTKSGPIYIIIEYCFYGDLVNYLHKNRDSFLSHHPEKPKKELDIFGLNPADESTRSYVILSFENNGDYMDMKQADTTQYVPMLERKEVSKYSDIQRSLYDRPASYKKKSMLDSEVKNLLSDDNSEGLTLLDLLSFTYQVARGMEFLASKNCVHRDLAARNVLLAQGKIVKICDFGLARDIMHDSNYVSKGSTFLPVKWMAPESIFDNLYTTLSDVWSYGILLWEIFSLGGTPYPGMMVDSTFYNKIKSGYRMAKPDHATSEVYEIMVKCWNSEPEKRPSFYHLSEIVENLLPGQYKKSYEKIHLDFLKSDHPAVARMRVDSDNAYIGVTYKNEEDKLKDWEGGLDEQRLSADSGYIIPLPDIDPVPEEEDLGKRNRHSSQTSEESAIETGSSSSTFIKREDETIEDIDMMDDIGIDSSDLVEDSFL
T25 sequence (P05771 whole entry): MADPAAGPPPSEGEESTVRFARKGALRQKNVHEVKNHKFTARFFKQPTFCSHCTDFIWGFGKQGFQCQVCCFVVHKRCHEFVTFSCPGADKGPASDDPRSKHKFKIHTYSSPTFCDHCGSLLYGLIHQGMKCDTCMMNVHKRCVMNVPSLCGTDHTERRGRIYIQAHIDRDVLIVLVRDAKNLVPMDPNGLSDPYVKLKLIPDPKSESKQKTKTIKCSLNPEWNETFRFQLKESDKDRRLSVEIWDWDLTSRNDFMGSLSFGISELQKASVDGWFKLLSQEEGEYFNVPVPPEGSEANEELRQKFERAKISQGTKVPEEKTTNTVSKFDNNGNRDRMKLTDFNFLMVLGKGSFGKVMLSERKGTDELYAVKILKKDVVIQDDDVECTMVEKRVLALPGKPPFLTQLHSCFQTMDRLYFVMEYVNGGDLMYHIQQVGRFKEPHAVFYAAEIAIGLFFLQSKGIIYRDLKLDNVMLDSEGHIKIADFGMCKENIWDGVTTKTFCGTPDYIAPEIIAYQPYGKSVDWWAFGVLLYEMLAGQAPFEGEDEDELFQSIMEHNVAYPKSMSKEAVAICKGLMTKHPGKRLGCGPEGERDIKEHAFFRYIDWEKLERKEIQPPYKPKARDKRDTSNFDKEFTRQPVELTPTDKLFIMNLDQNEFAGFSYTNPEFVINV
T15 sequence (Q8IW41 whole entry): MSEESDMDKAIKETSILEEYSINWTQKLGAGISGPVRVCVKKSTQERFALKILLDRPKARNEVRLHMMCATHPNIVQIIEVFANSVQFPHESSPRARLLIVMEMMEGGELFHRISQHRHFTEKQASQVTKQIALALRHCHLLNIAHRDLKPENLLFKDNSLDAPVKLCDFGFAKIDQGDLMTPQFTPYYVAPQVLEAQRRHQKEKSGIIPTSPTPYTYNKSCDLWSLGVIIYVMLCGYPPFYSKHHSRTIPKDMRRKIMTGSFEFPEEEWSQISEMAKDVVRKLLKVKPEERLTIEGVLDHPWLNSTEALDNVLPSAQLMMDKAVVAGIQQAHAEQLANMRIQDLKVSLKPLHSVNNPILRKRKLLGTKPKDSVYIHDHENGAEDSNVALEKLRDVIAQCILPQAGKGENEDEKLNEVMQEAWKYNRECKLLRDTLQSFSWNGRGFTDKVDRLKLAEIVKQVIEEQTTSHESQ
T2 sequence (Q9UQM7 whole entry): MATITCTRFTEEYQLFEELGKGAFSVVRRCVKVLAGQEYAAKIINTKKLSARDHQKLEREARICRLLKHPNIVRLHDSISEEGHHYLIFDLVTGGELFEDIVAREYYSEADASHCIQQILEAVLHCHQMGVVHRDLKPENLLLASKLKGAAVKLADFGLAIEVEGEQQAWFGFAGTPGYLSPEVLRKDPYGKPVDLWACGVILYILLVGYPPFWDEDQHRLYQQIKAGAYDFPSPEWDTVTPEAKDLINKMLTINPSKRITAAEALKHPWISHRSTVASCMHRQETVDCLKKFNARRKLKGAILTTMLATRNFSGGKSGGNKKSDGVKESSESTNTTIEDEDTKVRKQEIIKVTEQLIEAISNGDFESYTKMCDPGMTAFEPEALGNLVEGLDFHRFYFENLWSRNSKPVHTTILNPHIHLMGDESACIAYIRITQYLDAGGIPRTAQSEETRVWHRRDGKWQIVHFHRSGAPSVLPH
T14 sequence (P45983 whole entry): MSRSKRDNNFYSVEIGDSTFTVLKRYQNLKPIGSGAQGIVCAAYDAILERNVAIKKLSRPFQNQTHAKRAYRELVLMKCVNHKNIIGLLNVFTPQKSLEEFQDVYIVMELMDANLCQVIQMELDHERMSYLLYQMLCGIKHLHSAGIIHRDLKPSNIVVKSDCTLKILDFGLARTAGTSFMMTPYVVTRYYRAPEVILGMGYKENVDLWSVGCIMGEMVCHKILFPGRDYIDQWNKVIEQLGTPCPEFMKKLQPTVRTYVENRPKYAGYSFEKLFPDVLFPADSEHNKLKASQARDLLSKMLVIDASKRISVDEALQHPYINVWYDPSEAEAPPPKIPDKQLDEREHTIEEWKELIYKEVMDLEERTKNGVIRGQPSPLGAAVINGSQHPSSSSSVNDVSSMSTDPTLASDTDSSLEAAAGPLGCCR
T37 sequence (Q13470 whole entry): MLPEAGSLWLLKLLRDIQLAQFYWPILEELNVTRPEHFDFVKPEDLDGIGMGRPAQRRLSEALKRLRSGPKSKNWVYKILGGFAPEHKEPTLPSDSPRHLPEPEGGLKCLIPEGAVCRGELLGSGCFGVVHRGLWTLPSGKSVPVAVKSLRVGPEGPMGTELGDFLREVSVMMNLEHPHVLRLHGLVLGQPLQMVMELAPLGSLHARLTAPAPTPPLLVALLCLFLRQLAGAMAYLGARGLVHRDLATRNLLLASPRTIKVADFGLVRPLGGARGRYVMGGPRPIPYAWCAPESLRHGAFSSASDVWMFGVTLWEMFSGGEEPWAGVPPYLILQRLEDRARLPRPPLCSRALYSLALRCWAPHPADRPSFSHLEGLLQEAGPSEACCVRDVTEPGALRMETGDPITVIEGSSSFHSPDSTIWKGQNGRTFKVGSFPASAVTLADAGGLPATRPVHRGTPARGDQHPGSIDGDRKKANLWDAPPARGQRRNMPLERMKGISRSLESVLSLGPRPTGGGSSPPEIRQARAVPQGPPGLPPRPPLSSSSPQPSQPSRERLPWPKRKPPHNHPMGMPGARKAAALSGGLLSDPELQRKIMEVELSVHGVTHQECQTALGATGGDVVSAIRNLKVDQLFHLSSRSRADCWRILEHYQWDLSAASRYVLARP
T33 sequence (Q96SB4 whole entry): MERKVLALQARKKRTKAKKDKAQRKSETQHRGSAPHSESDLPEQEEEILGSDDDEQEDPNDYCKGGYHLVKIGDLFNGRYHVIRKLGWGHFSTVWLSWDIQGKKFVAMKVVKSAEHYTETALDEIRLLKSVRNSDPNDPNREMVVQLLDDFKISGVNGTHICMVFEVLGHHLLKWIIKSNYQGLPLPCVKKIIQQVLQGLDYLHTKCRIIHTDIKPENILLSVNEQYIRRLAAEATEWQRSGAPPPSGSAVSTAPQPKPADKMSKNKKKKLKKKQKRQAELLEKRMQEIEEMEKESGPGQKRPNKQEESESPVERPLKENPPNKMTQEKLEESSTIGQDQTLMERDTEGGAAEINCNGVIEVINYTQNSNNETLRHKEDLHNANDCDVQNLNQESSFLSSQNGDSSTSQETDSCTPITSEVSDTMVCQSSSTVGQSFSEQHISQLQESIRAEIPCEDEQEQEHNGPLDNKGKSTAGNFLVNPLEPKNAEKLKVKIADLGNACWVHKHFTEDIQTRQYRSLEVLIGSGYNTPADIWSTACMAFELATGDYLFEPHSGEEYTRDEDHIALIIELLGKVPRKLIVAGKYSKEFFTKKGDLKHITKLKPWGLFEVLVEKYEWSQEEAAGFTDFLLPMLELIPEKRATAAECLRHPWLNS
T13 sequence (Q16539 whole entry): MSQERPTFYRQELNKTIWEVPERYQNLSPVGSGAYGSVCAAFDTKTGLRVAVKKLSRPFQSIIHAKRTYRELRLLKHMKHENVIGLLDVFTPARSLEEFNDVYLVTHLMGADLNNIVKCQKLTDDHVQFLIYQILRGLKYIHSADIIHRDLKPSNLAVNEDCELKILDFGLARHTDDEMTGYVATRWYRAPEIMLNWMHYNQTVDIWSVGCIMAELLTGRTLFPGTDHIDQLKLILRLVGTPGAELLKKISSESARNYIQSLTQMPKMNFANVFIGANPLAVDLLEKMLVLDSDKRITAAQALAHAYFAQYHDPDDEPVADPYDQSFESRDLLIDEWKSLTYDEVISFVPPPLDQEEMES

## NS(=O)(=O)c1ccc(Nc2ncc3cc4n(c3n2)C2(CCCCC2)C(=O)NN4)cc1 [INX-315]
[1]
  inhibition at 0.1 µM: 55%
[2]
  inhibition at 0.1 µM: -4%
[3]
  inhibition at 0.1 µM: -3%
[4]
  inhibition at 0.1 µM: 4%
[5]
  inhibition at 0.1 µM: 20%
[6]
  inhibition at 0.1 µM: 11%
[7]
  inhibition at 0.1 µM: 6%
[8]
  inhibition at 0.1 µM: 44%
[9]
  inhibition at 0.1 µM: 19%
[10]
  inhibition at 0.1 µM: 17%
[11]
  inhibition at 0.1 µM: 13%
[12]
  inhibition at 0.1 µM: 9%
[13]
  inhibition at 0.1 µM: 5%
[14]
  inhibition at 0.1 µM: 6%
[15]
  inhibition at 0.1 µM: 2%
[16]
  inhibition at 0.1 µM: 10%
[17]
  inhibition at 0.1 µM: 15%
[18]
  inhibition at 0.1 µM: 8%
[19]
  inhibition at 0.1 µM: 1%
[20]
  inhibition at 0.1 µM: 6%
[21]
  inhibition at 0.1 µM: -1%
[22]
  inhibition at 0.1 µM: 25%
[23]
  inhibition at 0.1 µM: 7%
[24]
  inhibition at 0.1 µM: 9%
[25]
  inhibition at 0.1 µM: 12%
[26]
  inhibition at 0.1 µM: 3%
[27]
  inhibition at 0.1 µM: 8%
[28]
  inhibition at 0.1 µM: -1%
[29]
  inhibition at 0.1 µM: 58%
[30]
  inhibition at 0.1 µM: 27%
[31]
  inhibition at 0.1 µM: 5%
[32]
  inhibition at 0.1 µM: 6%
[33]
  inhibition at 0.1 µM: 7%
[34]
  inhibition at 0.1 µM: 11%
[35]
  inhibition at 0.1 µM: 19%
[36]
  inhibition at 0.1 µM: 26%
[37]
  inhibition at 0.1 µM: 14%
